According to US5801270A, “Amine derivative and detergent composition containing the same” (Kao Corporation, priority 1993, dated 1998):

Key:
[1] = Cytotoxic effect on SIRC cells (Giemsa stain, 48 hours); format: cell-based, rabbit; conditions: rabbit, 48 hours culture, 655 nm, read-out: IC50
Method: (§1) The cytotoxic effect of the compounds according to the present invention was tested in accordance with the following method.
(§2) Four days prior to exposure to a substance to be tested, SIRC cells (established cell line of fibroblasts in the epithelial parenchymal layer of a rabbit eye) were disseminated on a 96-well plate in a concentration of 3×10^3 cells/well to culture them under conditions of 37° C. and 5% CO2.
(§3) The test substance was dissolved in physiological saline to give a concentration of 1 wt. % or 10 wt. %. This solution was diluted with a culture medium. After the thus-obtained test solution was added to the culture solution to conduct culture for 48 hours, the culture solution was washed twice with PBS (pH 7.4) and fixed in methanol to stain with a Giemsa stain. After washing and drying, a mixture of 1N HCl/ethanol (1/9) was added to extract the stained solution, followed by measurement by means of a microplate reader (655 nm). The concentration at which […] was expressed as IC50 (ppm).

[2] = Irritativeness and feeling of the compound on the user's skin and hair; conditions: in words
SIRC cells = experiment: Cytotoxic effect on SIRC cells (Giemsa stain, 48 hours); format: cell-based, rabbit; conditions: 48 hours culture, 655 nm
Method: as §1, §2, §3

Compound: CCCCCCCCCCCCN(CCOS(=O)(=O)O)CC(CN(CCCCCCCCCCCC)CC(CN(CCCCCCCCCCCC)CCOS(=O)(=O)O)OS(=O)(=O)O)OS(=O)(=O)O (stereo not drawn) [Example 10, sodium 3,7,11-tridodecyl-3,7,11-triaza-1,5,9,13-tridecanetetrasulfate]
- CC50 at 48 h [1]: 790 µg/mL
- irritativeness [2]: low

Compound: CCCCCCCCCCCCN(CCOS(=O)(=O)O)CC(CN(CCCCCCCCCCCC)CC(CN(CCCCCCCCCCCC)CC(CN(CCCCCCCCCCCC)CC(CN(CCCCCCCCCCCC)CCOS(=O)(=O)O)OS(=O)(=O)O)OS(=O)(=O)O)OS(=O)(=O)O)OS(=O)(=O)O (stereo not drawn) [Example 11, sodium 3,7,11,15,19-pentadodecyl-3,7,11,15,19-pentaaza-1,5,9,13,17,21-heneicosanehexasulfate]
- IC50 (SIRC cells): > 1000 ppm
- irritativeness [2]: low

Compound: CCCCCCCCN(CC(=O)O)CC(O)CN(CCCC)CC(O)CN(CCCCCCCC)CC(=O)O (stereo not drawn) [Example 8, 6-butyl-4,8-dihydroxy-2,10-dioctyl-2,6,10-triaza-1,11-undecanedicarboxylicacid]
- irritativeness [2]: low

Compound: CCCCCCCCN(CC(O)CN(CCCCCCCC)C(=O)CCC(=O)[O-])CC(O)CN(CCCCCCCC)C(=O)CCC(=O)[O-].[Na+].[Na+] (stereo not drawn)
- irritativeness [2]: low

Compound: CCCCCCCCCCCCOS(=O)(=O)[O-].[Na+] [Sodium dodecyl sulfate, reference compound]
- CC50 at 48 h [1]: 82 µg/mL

Compound: 6-butyl-4,8-dihydroxy-2,10-dioctyl-2,6,10-triaza-1,1,11,11-undecanetetracarboxylic acid [Example 12]
- irritativeness [2]: low

Compound: CCCCCCCCN(CC(O)CN(CCCCCCCC)C(=O)CC(C(=O)O)S(=O)(=O)[O-])CC(O)CN(CCCCCCCC)C(=O)CC(C(=O)O)S(=O)(=O)[O-].[Na+].[Na+] (stereo not drawn)
- irritativeness [2]: low
